Read-outs that look alike come from different tables or passages of the source.
Test system: potato leaves
Conditions: for damage on Aug. 8, 2022 (rating score) / damage on Aug. 16, 2022 (rating score) / damage on Aug. 22, 2022 (rating score): treatment on Aug. 5, 2022, Braunschweig, score 0-10, * p < 0.05 vs untreated
Experimental: In addition to the direct control of weeds in arable farming and on non-crop land, the use of sodium saccharin for desiccation of potatoes was examined. Thus, the following variants were tested in a field test (soil type: sandy loam): (a) untreated, (b) 160 g/l and (c) 320 g/l sodium saccharin. In this example, the addition of an additive was deliberately avoided in order to assess the specific effect of sodium saccharin. The experimental design was a fully randomized block design with 3 replicates and a plot size of 2.25 m^2.
In each case, a row of potatoes 3 m in length was applied using a 5 l hand-held sprayer (®Gloria) with a conventional annular nozzle at a pressure of 3-4 bar. As a result, the degree of damage was recorded in the form of the following rating score.
Score (damage) of the potato leaves after treatment with Sodium saccharin (treatment on Aug. 5, 2022, Braunschweig, conventional cultivation)

SMILES: O=C1NS(=O)(=O)c2ccccc21.[Na] [Sodium saccharin, sodium saccharin]
- damage on Aug. 8, 2022 (rating score) (160 g/l, no additive): 1.3*
- damage on Aug. 16, 2022 (rating score) (160 g/l, no additive): 5.3*
- damage on Aug. 22, 2022 (rating score) (160 g/l, no additive): 8.3*
- damage on Aug. 8, 2022 (rating score) (320 g/l, no additive): 3.3*
- damage on Aug. 16, 2022 (rating score) (320 g/l, no additive): 7.7*
- damage on Aug. 22, 2022 (rating score) (320 g/l, no additive): 9.3*
- desiccation of potato leaves (trend in words) (field test, 160 g/l and 320 g/l, no additive): sufficiently desiccated
- desiccation of potato leaves (in words) (low concentration (160 g/l), after 17 days): sufficient desiccation

From US20250386825A1, “Formulation for Applying to Vegetation” (Okipa Ltd, priority 2022, published 2025)
